Consider 52 molecules from PubChem BioAssay AID1996.

SMILES strings stand for the structures. In brackets after ≈: the same amount, converted by molar mass.

The conditions of this data set: buffer; pH 7.4; 200.0 µM.
In turn, `O=C(CN1CC=C(c2ccccc2)CC1)NC(=O)NC1CCCCC1` returned a kinetic solubility of 22.1 µg/mL (≈ 64.7 µM).
Then `Cc1cccc(NC(=O)C(C)Sc2nc3nc(C)cc(C)n3n2)c1` (configuration not stated), with > 51.2 µg/mL; and `Cc1cc(OCCn2ccnc2)cc(C)c1Cl`, with 30.8 µg/mL (≈ 123 µM).
Then `NC(=O)c1ccc(SCC(=O)NC2CCCCC2)c([N+](=O)[O-])c1`, with 14.7 µg/mL (≈ 43.6 µM); and `CC1(C)CC(=O)C(C(O)c2ccccc2)C(C)(C)N1` (configuration not stated), with 35.2 µg/mL (≈ 135 µM).
`Cc1cccn2c(=O)c(C(=O)NC3CCCCC3)c(O)nc12` had a kinetic solubility of 5.4 µg/mL (≈ 17.9 µM).
Then `O=C(CCn1c(=O)oc2cc(Cl)ccc21)Nc1ccc(O)cc1`, with > 49.9 µg/mL.
Then `Cc1cccc(C2NC(=O)c3ccccc3O2)c1` (configuration not stated), with 24.3 µg/mL (≈ 102 µM); and `CN(c1ccccc1)S(=O)(=O)c1ccc(Cl)nc1`, with 40.1 µg/mL (≈ 142 µM); and `CCn1c(NC(=O)c2ccccc2)nc2ccccc21`, with 3 µg/mL (≈ 11.3 µM).
For the molecule `CC(Sc1nc2c(c(=O)[nH]1)CCCC2)C(=O)Nc1ccccc1C#N` (configuration not stated), the solubility (kinetic) is 46.1 µg/mL (≈ 130 µM).
Then `CC1(C)C(=O)N(c2ccccc2Cl)C(=O)c2ccccc21`, with 44.3 µg/mL (≈ 148 µM).
Then `Cc1ccc(C(=O)NCCCNC(=O)c2ccccc2C)cn1`, with > 46.7 µg/mL; and `COC(=O)C(Cc1ccccc1)NC(=O)CCC(=O)NC(C)CCc1ccccc1` (configuration not stated), with > 61.6 µg/mL; and `Cc1nc2ccccc2n1CCOc1ccc(F)cc1`, with 40.1 µg/mL (≈ 148 µM).
Then `CC(=Nc1ccccc1O)c1sc2ccccc2c1O`, with < 0.6 µg/mL; and `O=C(Nc1ccc(F)cc1)C(=O)C1C(=O)Nc2ccccc21` (configuration not stated), with > 44.7 µg/mL; and `NC(=O)C1CCN(CC(=O)Nc2nccs2)CC1`, with 38.4 µg/mL (≈ 143 µM).
For the molecule `O=c1c2ccccc2nc2n1CCCN2`, the solubility (kinetic) was > 30.2 µg/mL.
Then `CN1CC(C(=O)c2ccc(F)cc2)C(c2ccc(F)cc2)C1` (configuration not stated), with > 45.2 µg/mL; and `O=[N+]([O-])c1cc(C(F)(F)F)ccc1NC1CCN(Cc2ccccc2)C1` (configuration not stated), with 1.7 µg/mL (≈ 4.65 µM).
Then `COc1ccccc1/C=C/C(=O)OCC(=O)c1cc(C)n(C)c1C`, with 7.9 µg/mL (≈ 24.1 µM).
Then `CC(C)(C)N1C(=O)c2ccc(C(=O)Nc3ccc(O)cc3)cc2C1=O`, with 17.4 µg/mL (≈ 51.4 µM).
As to `O=c1[nH]c(=S)[nH]c2nc(-c3cccs3)cc(C(F)(F)F)c12`, the kinetic solubility is 4.8 µg/mL (≈ 14.6 µM).
Then `CCOC(=O)N1CCN(CC(O)c2c[nH]c3ccccc23)CC1` (configuration not stated), with > 47.6 µg/mL.
Then `O=C(CCS(=O)(=O)c1ccccc1)N1CCOCC1`, with > 42.5 µg/mL; and `CC(NCCC(Cc1ccccc1)c1ccco1)c1ccccc1` (configuration not stated), with > 47.9 µg/mL; and `CCOCCCNCC(=O)Nc1cc(S(=O)(=O)N2CCOCC2)ccc1N1CCOCC1`, with > 70.6 µg/mL.
Then `COc1ccc(Cl)cc1C(=O)NCC(c1ccco1)N(C)C` (configuration not stated), with 45.1 µg/mL (≈ 140 µM).
In the case of `CN1C(=O)/C(=C\c2ccc(N(C)C)cc2)OC1=S`, the kinetic solubility is < 0.3 µg/mL.
Then `Cn1c(Cc2ccccc2)nnc1SCC(=O)Nc1ccccc1`, with > 50.8 µg/mL; and `CC(C)CCC(C(=O)O)C(C)CC(=O)NNC(=O)c1ccco1` (configuration not stated), with > 48.7 µg/mL.
Then `COc1cc(OC)c(C(=O)NC2CCCc3ccccc32)cc1OC` (configuration not stated), with 44.3 µg/mL (≈ 130 µM); and `Cc1ccc(C)c(S(=O)(=O)NC(C)C(=O)NCc2ccccn2)c1` (configuration not stated), with > 52.1 µg/mL; and `COc1nc(-c2ccccc2)ncc1S(=O)(=O)c1ccccc1`, with < 0.3 µg/mL.
Then `Cn1c(=O)c2c(ncn2CC(=O)OCC(=O)Nc2cc(Cl)ccc2C#N)n(C)c1=O`, with 63.2 µg/mL (≈ 147 µM); and `Cc1ccc2c(c1)N(C(C)C(=O)NCc1ccccn1)C(=O)CO2` (configuration not stated), with > 48.8 µg/mL.
Consider `COc1cc(CN2CCCC(C)C2)ccc1OCc1ccccc1` (configuration not stated), for which the kinetic solubility was determined as 42.9 µg/mL (≈ 132 µM).
`CC(C)(C)c1ccc(Cn2c(=O)cnc3ccccc32)cc1`: the solubility (kinetic) came to 0.4 µg/mL (≈ 1.37 µM).
Then `CCOC(=O)CCCNC(=O)CSc1nc2ccc(OCC)cc2[nH]1`, with 51.4 µg/mL (≈ 141 µM); and `Cc1ccc(S(=O)(=O)N2CCOCC2)cc1C(=O)c1nccn1C`, with > 52.4 µg/mL.
Take `Nc1cccc(-c2nc3ncccc3o2)c1`: the solubility (kinetic) was > 31.7 µg/mL.
Then `CCc1noc(C)c1C(=O)Nc1nc(-c2ccc(F)cc2)c(C)s1`, with 0.3 µg/mL (≈ 0.869 µM); and `Cc1ccc(NC(=O)CCC(=O)N2CCC(C)CC2)c([N+](=O)[O-])c1`, with > 50 µg/mL.
Then `COc1ccccc1N1CCN(C(=O)c2cc(C)oc2C)CC1`, with > 47.2 µg/mL; and `O=C(NC1CCCc2ccccc21)c1cn2ccccc2n1` (configuration not stated), with 39.7 µg/mL (≈ 136 µM); and `Cc1cccc(NC(=O)CNC(=O)CSc2ncccn2)c1C`, with > 49.6 µg/mL.
As to `CC(=O)c1c(C)[nH]c(-c2ccccc2)nc1=S`, the kinetic solubility came out at 33.2 µg/mL (≈ 136 µM).
Then `CCn1cc(CN2CCN(C)C(CCO)C2)c2ccccc21` (configuration not stated), with 45 µg/mL (≈ 149 µM); and `Cc1ccccc1/C=C\c1nc(O)c([N+](=O)[O-])c(=O)[nH]1`, with > 41 µg/mL; and `CCOc1ccc(NC(=O)C(CC(=O)O)Cc2ccc(C)cc2)cc1` (configuration not stated), with > 51.2 µg/mL.
Then `CCOC(=O)c1sc(=S)n(-c2ccc(C)cc2)c1N`, with 1.4 µg/mL (≈ 4.76 µM).
